Key:
[1] = Thioflavin T fluorescence quantification of aggregates of 1; format: physicochemical; details: ThT emission, PBS buffer
HeLa cells = assay: Cell viability assay (MTT), HeLa cells; format: cell-based
Procedure: (§1) Cells in exponential growth phase were seeded in a 96 well plate at a concentration of 50,000 cell/well. The cells were allowed to attach to the wells for 24 h at 37° C., 5% CO2, then the culture medium was removed and 100 μL new culture medium containing 1 at gradient concentrations was placed into each well. After culturing at 37° C., 5% CO2 for desired time, each well was added by 10 μL of 5 mg/mL MTT 43-(4,5-Dimethylthiazol-2-yl)-2,5-diphenyltetrazolium bromide), and the plated cells were incubate at dark for 4 h. 100 μL 10% SDS with 0.01 M HCl was added to each well to stop the reduction reaction and to dissolve the purple. After incubation of the cells at 37° C. for overnight, the viability is measured. Data represent the mean±standard deviation of three independent experiments.
(§2) The estimation of the threshold concentration of aggregation (320-340 μM) for 1 allows us to examine the cytotoxicity of 1 in monomer and molecular aggregate forms. We first tested the cytotoxicity of 1 towards HeLa cells, the most widely studied cancer cell line, below and above the threshold concentration.

T98G = assay: Cell viability assay (MTT), T98G; format: cell-based
Procedure: as §1, §2

Capan-2 = assay: Cell viability assay (MTT), Capan-2; format: cell-based
Procedure: as §1, §2

[2] = Cell viability assay (MTT), PC12 neuronal cell line; format: cell-based; details: rat, PC12 cells; 400 and 500 μM, 7 days
Procedure: (§3) FIG. 10 depicts the long term cytotoxicity of 1 on PC12 cells. Related to FIG. 2. (a) MTT viability test of cell incubated with gradient concentration of 1 for up to 7 days without changing medium. Data are presented as mean±SD of three independent experiments. (b) Intracellular concentration of 1 in PC12 cells treated with 1 for 12 h at 37° C. measured by LC-MS (left bar=400 μM; right bar=300 μM). (c) Cells were subcultured and re-seeded with new medium containing the same concentration of 1 (0 for control group and 400 μM for test group) every 4 days. Data are presented as mean±SD of three independent experiments.
as §1, §2

PC12 = assay: as above; format: cell-based
Procedure: as §3, §1, §2

PC12 cells = assay: Intracellular concentration of 1 in PC12 cells by LC-MS; format: cell-based; details: 12 h at 37° C.
Procedure: as §3
FIG. 21 depicts the intracellular concentration of 1 in PC12 and T98G cells after incubation with 400 μM of 1 for 12 h. Cells in exponential growth phase were seeded in a 10 cm petri dish at 10,000 cell/mL. The cells were allowed to attach for 24 h at 37° C., 5% CO2. The culture medium was removed, and new culture medium containing 1 at 0 or 400 μM was added. After 12 h of incubation, cells were washed with PBS buffer 3 times and collected by cell scraper with 1 mL of PBS buffer. The cell suspension was centrifuged at 600 g for 5 min to obtain a cell pellet. 10 μL of the cell pellet were lysed in 200 μL of water and 200 μL of MeOH. […] The concentration of 1 in the lysate was measured by LC-MS.

tubulin = molecular target: T1, tubulin (Homo sapiens, UniProt P68366+P68371); assay: Hydrogel based protein pull-down assay, tubulin; format: binding; details: hydrogel 10 mM, HeLa cell lysate, Western blot
T1 construct: snap freeze and thaw for 3 cycles to lyse the cells; endogenous in cells; host or cells: HeLa cell lysate
Procedure: (§4) 4×10^7 of HeLa cells were scrapped from petri dish and washed with PBS buffer for 3 times then centrifuged at 300 g for 5 minutes. The collected cell pellet was mixed with phosphate buffer (100 mM) then snap freeze and thaw for 3 cycles to lyse the cells. The cell lysate was clarified by centrifugation at 12,000 g for 20 min at 4° C. to remove the whole cells, nuclei and large mitochondria. 50 μL of the supernatant lysate was gently mixed with 30 μL hydrogel of 1 (10 mM in PBS buffer, pH 7.6) on rotator at RT for 30 min. The hydrogel was collected by centrifugation (12,000 g, 5 min, 4° C.) and the supernatant was collected and placed on ice before analysis. The hydrogel was washed three times by gently mixing with 50 μL of the washing buffer (50 mM phosphate buffer pH 7.6 supplemented with 150 mM NaCl) on rotator at RT for 10 min followed by separation on centrifuge (12,000 g, 5 min, 4° C.). Supernatants were collected and placed on ice before analysis. Finally, the remaining hydrogel was dissolved using 1:1 washing buffer and 5× Laemeli buffer. All other samples were mixed with 5× Laemeli buffer (final concentration 2×) before SDS-PAGE.
(§5) That 1 enters the cells to affect cell cycle, cell migration, and eventually cell viability implies the interactions between the aggregates of 1 and certain intracellular proteins. […]

actin = molecular target: T2, actin (Homo sapiens, UniProt P60709); assay: Hydrogel based protein pull-down assay, actin; format: binding; details: hydrogel 10 mM, HeLa cell lysate, Western blot
T2 construct: snap freeze and thaw for 3 cycles to lyse the cells; endogenous in cells; host or cells: HeLa cell lysate
Procedure: as §4, §5

tau = assay: Hydrogel based protein pull-down assay, tau; format: binding; details: protein mass-spectrometry
Procedure: One reason is that PC12 cells have slower metabolism and growth (e.g., doubling every 72 h) than that of cancer cells. […] Another reason is that, PC12 cells, as a neuronal cell, have abundant amount of microtubule-stabilizing proteins (e.g., tau and MAP2) to promote tubulin polymerization and stabilize microtubules. […] Therefore, the existence of microtubule-stabilizing proteins in neurons can counter the effect of the molecular aggregates of 1, which is consistent with that PC12 cells, incubated with 1 at 400 μM (FIG. 5p), still display intact microtubule network. These two effects together, protect the PC12 cells from cytotoxicity induced by molecular aggregates of 1 (FIG. 7).
4×10^7 of HeLa cells were scrapped from petri dish and washed with PBS buffer for 3 times then centrifuged at 300 g for 5 minutes. The collected cell pellet was mixed with phosphate buffer (100 mM) then snap freeze and thaw for 3 cycles to lyse the cells. The cell lysate was clarified by centrifugation at 12,000 g for 20 min at 4° C. to remove the whole cells, nuclei and large mitochondria. 50 μL of the supernatant lysate was gently mixed with 30 μL hydrogel of 1 (10 mM in PBS buffer, pH 7.6) on rotator at RT for 30 min. The hydrogel was collected by centrifugation (12,000 g, 5 min, 4° C.) and the supernatant was collected and placed on ice before analysis. […]

T1 sequence (P68366 whole entry): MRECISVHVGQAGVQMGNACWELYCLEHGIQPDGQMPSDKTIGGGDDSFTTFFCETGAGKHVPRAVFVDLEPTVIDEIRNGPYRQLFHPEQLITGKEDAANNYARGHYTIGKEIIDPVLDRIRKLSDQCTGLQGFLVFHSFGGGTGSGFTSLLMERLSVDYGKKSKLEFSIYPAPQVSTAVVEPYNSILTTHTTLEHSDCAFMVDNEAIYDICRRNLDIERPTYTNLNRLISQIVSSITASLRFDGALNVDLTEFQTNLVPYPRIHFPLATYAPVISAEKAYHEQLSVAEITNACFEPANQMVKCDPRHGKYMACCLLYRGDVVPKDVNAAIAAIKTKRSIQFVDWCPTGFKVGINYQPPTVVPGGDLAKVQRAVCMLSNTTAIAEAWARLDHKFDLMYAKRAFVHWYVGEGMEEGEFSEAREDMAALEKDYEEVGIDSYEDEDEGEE
T1 sequence (P68371 whole entry): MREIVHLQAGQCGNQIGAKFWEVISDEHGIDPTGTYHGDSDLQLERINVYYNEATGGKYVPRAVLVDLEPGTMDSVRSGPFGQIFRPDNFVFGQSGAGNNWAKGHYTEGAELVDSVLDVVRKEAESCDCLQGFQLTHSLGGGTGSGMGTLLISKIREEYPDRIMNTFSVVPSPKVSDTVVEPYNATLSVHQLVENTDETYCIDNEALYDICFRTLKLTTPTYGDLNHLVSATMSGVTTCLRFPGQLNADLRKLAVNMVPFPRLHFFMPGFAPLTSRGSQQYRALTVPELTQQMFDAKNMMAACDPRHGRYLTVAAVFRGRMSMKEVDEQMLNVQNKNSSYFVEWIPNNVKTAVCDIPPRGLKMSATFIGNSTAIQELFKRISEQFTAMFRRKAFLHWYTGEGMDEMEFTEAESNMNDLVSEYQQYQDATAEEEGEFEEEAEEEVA

Compound: O=C(Cc1ccc2ccccc2c1)N[C@@H](Cc1ccccc1)C(=O)N[C@@H](Cc1ccccc1)C(=O)O [Compound 1]
- threshold concentration for the formation of molecular aggregates [1]: 320 to 340 µM
- concentration at which molecular aggregates exhibit cytotoxicity (HeLa cells): 400 µM
- concentration at which molecular aggregates exhibit cytotoxicity, weight/volume (HeLa cells; 400 μM converted): about 0.19 mg/mL
- cytotoxicity towards HeLa cells (HeLa cells; 200 and 300 μM, below threshold concentration): little cytotoxicity
- cell death of HeLa cells, extended assay (HeLa cells; 200 or 300 μM, 72 h): hardly results in significant cell death
- time dependent viability of HeLa cells (HeLa cells; 400 and 500 μM): little loss of cell viability until after 38 h
- cytotoxicity towards HeLa cells after removal of aggregates (HeLa cells; 400 and 500 μM, medium passed through 0.22 μm PVDF filter): largely alleviates the cytotoxicity
- viability of the HeLa cells (HeLa cells; 400 and 500 μM, within 48 h, as prepared medium): less than 20%
- cytotoxicity towards T98G (T98G): decreases of cell viabilities only observed at 400 and 500 μM
- cytotoxicity towards Capan-2 (Capan-2): decreases of cell viabilities only observed at 400 and 500 μM
- viability at 7 days [2]: > 60%
- viability of PC12 cells, constant supply of 1 (PC12; 400 μM, after 7 days, re-seeded with new medium every 4 days): significant loss of cell viability
- toxicity towards PC12 (PC12; 400 and 500 μM): little toxicity
- accumulation of 1 in PC12 cells versus HeLa cells (PC12 cells): much less amount of 1 than HeLa cells do
- binding of tubulin to the aggregates of 1 (tubulin): higher affinity to the aggregates of 1 than actin does
- binding of actin to the aggregates of 1 (actin): low binding affinity
- interaction of aggregates of 1 with tau (tau): little or no interaction
